In ChEMBL document CHEMBL5505958, “Optimization of sequence and chiral content enhances therapeutic potential of tilapia piscidin peptides” (Eur J Med Chem, 2024):
Active and inactive are the calls of the source.

What was measured:
[1] = system: Klebsiella pneumoniae; test: Bactericidal activity against Klebsiella pneumoniae 10692 assessed as inhibition of bacterial growth incubated for 16 to 20 hrs; type: functional; details: time 16-20 hrs
[2] = system: Salmonella typhimurium; test: Antibacterial activity against Salmonella typhimurium DT104 assessed as inhibition of bacterial growth incubated for 16 to 20 hrs in presence of human serum; type: functional, Salmonella enterica subsp. enterica serovar Typhimurium; details: Salmonella enterica, time 16-20 hrs
[3] = system: Klebsiella aerogenes; test: Antibacterial activity against Enterobacter aerogenes 15630 assessed as inhibition of bacterial growth incubated for 16 to 20 hrs; type: functional; details: time 16-20 hrs
[4] = system: Klebsiella pneumoniae; test: Bactericidal activity against Klebsiella pneumoniae BAA 2473 assessed as inhibition of bacterial growth incubated for 16 to 20 hrs; type: functional; details: time 16-20 hrs
[5] = system: Klebsiella aerogenes; test: Bactericidal activity against Enterobacter aerogenes 15630 assessed as inhibition of bacterial growth incubated for 16 to 20 hrs; type: functional; details: time 16-20 hrs
[6] = system: Salmonella typhimurium; test: Antibacterial activity against Salmonella typhimurium DT104 assessed as inhibition of bacterial growth incubated for 16 to 20 hrs; type: functional, Salmonella enterica subsp. enterica serovar Typhimurium; details: Salmonella enterica, time 16-20 hrs
[7] = system: Acinetobacter baumannii; test: Bactericidal activity against Acinetobacter baumannii 10591 assessed as inhibition of bacterial growth incubated for 16 to 20 hrs in presence of human serum; type: functional; details: time 16-20 hrs
[8] = system: Klebsiella pneumoniae; test: Antibacterial activity against Klebsiella pneumoniae 10692 assessed as inhibition of bacterial growth incubated for 16 to 20 hrs; type: functional; details: time 16-20 hrs
[9] = system: Klebsiella oxytoca; test: Antibacterial activity against Klebsiella oxytoca 13985 assessed as inhibition of bacterial growth incubated for 16 to 20 hrs; type: functional; details: time 16-20 hrs
[10] = system: Pseudomonas aeruginosa; test: Bactericidal activity against Pseudomonas aeruginosa 19660 assessed as inhibition of bacterial growth incubated for 16 to 20 hrs in presence of human serum; type: functional; details: time 16-20 hrs
[11] = system: Yersinia enterocolitica; test: Bactericidal activity against Yersinia enterocolitica 13999 assessed as inhibition of bacterial growth incubated for 16 to 20 hrs; type: functional; details: time 16-20 hrs
[12] = system: Klebsiella pneumoniae; test: Antibacterial activity against Klebsiella pneumoniae TL 297 assessed as inhibition of bacterial growth incubated for 16 to 20 hrs in presence of human serum; type: functional; details: time 16-20 hrs
[13] = system: Klebsiella oxytoca; test: Antibacterial activity against Klebsiella oxytoca 13985 assessed as inhibition of bacterial growth incubated for 16 to 20 hrs in presence of human serum; type: functional; details: time 16-20 hrs
[14] = system: Salmonella enterica; test: Bactericidal activity against Salmonella enterica 15455 assessed as inhibition of bacterial growth incubated for 16 to 20 hrs in presence of human serum; type: functional; details: time 16-20 hrs
[15] = system: Salmonella enterica; test: Bactericidal activity against Salmonella enterica 15455 assessed as inhibition of bacterial growth incubated for 16 to 20 hrs; type: functional; details: time 16-20 hrs
[16] = system: Escherichia coli; test: Bactericidal activity against Escherichia coli 10675 assessed as inhibition of bacterial growth incubated for 16 to 20 hrs; type: functional; details: time 16-20 hrs
[17] = system: Vibrio vulnificus; test: Bactericidal activity against Vibrio vulnificus 204 assessed as inhibition of bacterial growth incubated for 16 to 20 hrs; type: functional; details: time 16-20 hrs
[18] = system: Enterococcus faecalis; test: Bactericidal activity against Enterococcus faecalis 10066 assessed as inhibition of bacterial growth incubated for 16 to 20 hrs; type: functional; details: time 16-20 hrs
[19] = system: Vibrio vulnificus; test: Antibacterial activity against Vibrio vulnificus 204 assessed as inhibition of bacterial growth incubated for 16 to 20 hrs in presence of human serum; type: functional; details: time 16-20 hrs
[20] = system: Escherichia coli; test: Bactericidal activity against Escherichia coli 10675 assessed as inhibition of bacterial growth incubated for 16 to 20 hrs in presence of human serum; type: functional; details: time 16-20 hrs
[21] = system: Escherichia coli; test: Antibacterial activity against Escherichia coli 10675 assessed as inhibition of bacterial growth incubated for 16 to 20 hrs; type: functional; details: time 16-20 hrs
[22] = system: Salmonella typhimurium; test: Bactericidal activity against Salmonella typhimurium DT104 assessed as inhibition of bacterial growth incubated for 16 to 20 hrs in presence of human serum; type: functional, Salmonella enterica subsp. enterica serovar Typhimurium; details: Salmonella enterica, time 16-20 hrs
[23] = system: Acinetobacter baumannii; test: Bactericidal activity against Acinetobacter baumannii 10591 assessed as inhibition of bacterial growth incubated for 16 to 20 hrs; type: functional; details: time 16-20 hrs
[24] = system: Staphylococcus aureus; test: Antibacterial activity against Staphylococcus aureus 10780 assessed as inhibition of bacterial growth incubated for 16 to 20 hrs; type: functional; details: time 16-20 hrs
[25] = system: Acinetobacter baumannii; test: Antibacterial activity against Acinetobacter baumannii 10591 assessed as inhibition of bacterial growth incubated for 16 to 20 hrs in presence of human serum; type: functional; details: time 16-20 hrs
[26] = system: Enterococcus faecium; test: Bactericidal activity against Enterococcus faecium 10067 assessed as inhibition of bacterial growth incubated for 16 to 20 hrs; type: functional; details: time 16-20 hrs
[27] = system: Klebsiella pneumoniae; test: Antimicrobial activity against drug-resistant Klebsiella pneumoniae BAA 2473 infected in C57BL/6 mouse assessed as reduction in bacterial load at 5 mg/kg, po administered for 2 hrs and measured at 24 hrs; type: functional, organism-based; details: time 26.0 hrs
[28] = system: Acinetobacter baumannii; test: Antibacterial activity against Acinetobacter baumannii 10591 assessed as inhibition of bacterial growth incubated for 16 to 20 hrs; type: functional; details: time 16-20 hrs
[29] = system: Staphylococcus haemolyticus; test: Antibacterial activity against Staphylococcus haemolyticus 15237 assessed as inhibition of bacterial growth incubated for 16 to 20 hrs; type: functional; details: time 16-20 hrs
[30] = system: Enterococcus faecium; test: Antibacterial activity against Enterococcus faecium 10067 assessed as inhibition of bacterial growth incubated for 16 to 20 hrs in presence of human serum; type: functional; details: time 16-20 hrs
[31] = system: Enterococcus faecium; test: Antibacterial activity against Enterococcus faecium 10067 assessed as inhibition of bacterial growth incubated for 16 to 20 hrs; type: functional; details: time 16-20 hrs
[32] = system: Vibrio vulnificus; test: Antibacterial activity against Vibrio vulnificus 204 assessed as inhibition of bacterial growth incubated for 16 to 20 hrs; type: functional; details: time 16-20 hrs
[33] = system: Rhizopus arrhizus; test: Fungicidal activity against Rhizopus oryzae 34550 assessed as inhibition of fungal growth incubated for 16 to 20 hrs in presence of human serum; type: functional; details: time 16-20 hrs
[34] = system: Salmonella enterica; test: Antibacterial activity against Salmonella enterica 15455 assessed as inhibition of bacterial growth incubated for 16 to 20 hrs; type: functional; details: time 16-20 hrs
[35] = system: Rhizopus arrhizus; test: Fungicidal activity against Rhizopus oryzae 34550 assessed as inhibition of fungal growth incubated for 72 hrs; type: functional
[36] = system: Enterococcus faecalis; test: Antibacterial activity against Enterococcus faecalis 10066 assessed as inhibition of bacterial growth incubated for 16 to 20 hrs; type: functional; details: time 16-20 hrs
[37] = system: Klebsiella oxytoca; test: Bactericidal activity against Klebsiella oxytoca 13985 assessed as inhibition of bacterial growth incubated for 16 to 20 hrs in presence of human serum; type: functional; details: time 16-20 hrs
[38] = system: Escherichia coli; test: Antibacterial activity against Escherichia coli 10675 assessed as inhibition of bacterial growth incubated for 16 to 20 hrs in presence of human serum; type: functional; details: time 16-20 hrs
[39] = system: Salmonella enterica; test: Antibacterial activity against Salmonella enterica 15455 assessed as inhibition of bacterial growth incubated for 16 to 20 hrs in presence of human serum; type: functional; details: time 16-20 hrs
[40] = system: Klebsiella pneumoniae; test: Bactericidal activity against Klebsiella pneumoniae TL 297 assessed as inhibition of bacterial growth incubated for 16 to 20 hrs in presence of human serum; type: functional; details: time 16-20 hrs
[41] = system: Vibrio vulnificus; test: Bactericidal activity against Vibrio vulnificus 204 assessed as inhibition of bacterial growth incubated for 16 to 20 hrs in presence of human serum; type: functional; details: time 16-20 hrs
[42] = system: Yersinia enterocolitica; test: Antibacterial activity against Yersinia enterocolitica 13999 assessed as inhibition of bacterial growth incubated for 16 to 20 hrs; type: functional; details: time 16-20 hrs
[43] = system: Staphylococcus haemolyticus; test: Bactericidal activity against Staphylococcus haemolyticus 15237 assessed as inhibition of bacterial growth incubated for 16 to 20 hrs; type: functional; details: time 16-20 hrs
[44] = system: Enterococcus faecium; test: Bactericidal activity against Enterococcus faecium 10067 assessed as inhibition of bacterial growth incubated for 16 to 20 hrs in presence of human serum; type: functional; details: time 16-20 hrs
[45] = system: Klebsiella pneumoniae; test: Antibacterial activity against Klebsiella pneumoniae BAA 2473 assessed as inhibition of bacterial growth incubated for 16 to 20 hrs; type: functional; details: time 16-20 hrs
[46] = system: Pseudomonas aeruginosa; test: Antibacterial activity against Pseudomonas aeruginosa 19660 assessed as inhibition of bacterial growth incubated for 16 to 20 hrs in presence of human serum; type: functional; details: time 16-20 hrs
[47] = system: Salmonella typhimurium; test: Bactericidal activity against Salmonella typhimurium DT104 assessed as inhibition of bacterial growth incubated for 16 to 20 hrs; type: functional, Salmonella enterica subsp. enterica serovar Typhimurium; details: Salmonella enterica, time 16-20 hrs
[48] = system: Rhizopus arrhizus; test: Antifungal activity against Rhizopus oryzae 34550 assessed as inhibition of fungal growth incubated for 16 to 20 hrs; type: functional; details: time 16-20 hrs
[49] = system: Staphylococcus aureus; test: Bactericidal activity against Staphylococcus aureus 10780 assessed as inhibition of bacterial growth incubated for 16 to 20 hrs; type: functional; details: time 16-20 hrs
[50] = system: Klebsiella oxytoca; test: Bactericidal activity against Klebsiella oxytoca 13985 assessed as inhibition of bacterial growth incubated for 16 to 20 hrs; type: functional; details: time 16-20 hrs

C[C@H]1c2cccc(O)c2C(=O)C2=C(O)[C@]3(O)C(=O)C(C(N)=O)=C(O)[C@@H](N(C)C)[C@@H]3[C@@H](O)[C@@H]21 [DOXYCYCLINE ANHYDROUS]
100 µM: MBC [1] | MBC [4] | MBC [16] | MBC [20] | MBC [37]
200 µM: MBC [5] | MBC [50]
> 100 µM: MBC [14] | MBC [15] | MBC [22] | MFC [35] | MIC [48]
0.39 µM: MIC [30]
0.78 µM: MIC [28]
6.25 µM: MIC [6] | MBC [7] | MIC [9] | MBC [10] | MIC [13] | MBC [18] | MBC [26] | MIC [39] | MIC [46] | MBC [47]
50 µM: MIC [45]
0.2 µM: MIC [24] | MIC [31]
< 1.56 µM: MBC [11] | MIC [29] | MIC [36] | MBC [43]
inactive: Activity [27]
3.13 µM: MIC [3] | MIC [8] | MIC [21] | MIC [34] | MIC [38] | MIC [42]
12.5 µM: MIC [2] | MFC [33] | MBC [44] | MBC [49]
1.56 µM: MBC [23] | MIC [25]
25 µM: MIC [12] | MBC [40]
< 0.39 µM: MBC [17] | MIC [19] | MIC [32] | MBC [41]
